Reference: patent US20260335279A1, “METHODS OF TREATING ISCHEMIA-REPERFUSION INJURIES” (University of Cincinnati, priority 2022, published 2026)

Key:
TNFα = TNFα mRNA in ischemic myocardium; type: in vivo, mouse (C57BL/6); settings: evaluated at 2 h and 24 h of reperfusion, vs vehicle
Description: (§1) The myocardial ischemia/reperfusion surgical protocol was applied as follows. Mice were anesthetized with 2% isoflurane inhalation until anesthesia was achieved. The animals' body temperature was maintained at 37 °C throughout the surgical procedure using a heating pad. A tracheal tube was placed via tracheal intubation and the respiration rate was set at 150 strokes/min with a tidal volume of 200 μL, using Minivent ventilator for mice (Model 845, Harvard Apparatus). A 1.2 cm incision was made over the left chest. After retraction of the pectoral major and minor muscles, the fourth intercostal space was exposed. […] The mouse was then monitored during the recovery period, which was generally completed within 3 to 5 minutes. […]
(§2) Total RNA was purified from heart tissue using the TRIzol reagent according to the instructions of the manufacturer (ThermoFischer Scientific, Cat. No.: 15596018). cDNA synthesis was performed using the Applied Biosystems High Capacity cDNA Reverse Transcription Kit (ThermoFischer Scientific, Cat. No.: 4368814) from 500 ng RNA, which had been treated with DNAase I (ThermoFischer Scientific, Cat. No.: 18068015). Quantitative real-time PCR was performed with the SYBR Select Master Mix (ThermoFischer Scientific, Cat. No.: 4472903) using the manufacturer's recommendations. […]

IL-6 = IL-6 mRNA in ischemic myocardium; type: in vivo, mouse (C57BL/6); settings: evaluated at 2 h and 24 h of reperfusion, vs vehicle
Description: as §1, §2

Glut1 = test: GLUT1 protein levels after I/R; type: in vivo, mouse; settings: ML-264 treatment; did not reach statistical significance
Description: as §1
Isolated myocardial tissue/isolated primary murine cardiomyocytes were homogenized in radioimmunoprecipitation assay buffer (RIPA buffer) containing protease and phosphatase inhibitors (Thermo Fischer Scientific, Cat. No.: A32959). […] Relative densitometry was determined, and the β-actin protein was used as a loading control.
Finally, to test the potential involvement of GLUT1 and GLUT4 in myocardial ischemia-reperfusion injury, two compounds, namely KL-11743, a non-specific GLUT inhibitor, as well as STF-31, which is a GLUT1-specific inhibitor, were evaluated.

Ugp = Ugp mRNA expression after I/R; type: in vivo, mouse; settings: ML-264 treatment
Description: as §1, §2

cardiac fibrosis in mice = test: Masson's Trichrome staining, cardiac fibrosis in chronic model of I/R injury; type: in vivo, mouse (C57BL/6); settings: 30 min ischemia, 4 weeks reperfusion; two doses of ML264 at early reperfusion
Description: The myocardial ischemia/reperfusion surgical protocol was applied as follows. Mice were anesthetized with 2% isoflurane inhalation until anesthesia was achieved. The animals' body temperature was maintained at 37 °C throughout the surgical procedure using a heating pad. A tracheal tube was placed via tracheal intubation and the respiration rate was set at 150 strokes/min with a tidal volume of 200 μL, using Minivent ventilator for mice (Model 845, Harvard Apparatus). A 1.2 cm incision was made over the left chest. After retraction of the pectoral major and minor muscles, the fourth intercostal space was exposed. […] The left anterior descending coronary artery (LAD) was then located, sutured, and ligated at a site 3-4 mm distal to the origin of the artery under the left atrium using a 6-0 silk suture. The heart was allowed to stabilize for 15 min and right after, ischemia was induced by tightening the suture against a small piece of polyethylene tube. […] The mouse was then monitored during the recovery period, which was generally completed within 3 to 5 minutes. […]
Tissue sectioning and Masson's Trichrome staining were performed. […] Fibrotic myocardial tissue size was measured as % area with respect to the total slice area in mouse hearts imaged at 0.8×. […]

SMILES: CN(C(=O)CNC(=O)/C=C/c1cccc(Cl)c1)C1CCS(=O)(=O)CC1 [ML264]
- TNFα mRNA levels (TNFα): Significant suppression
- IL-6 mRNA levels (IL-6): Significant suppression
- GLUT1 protein levels (Glut1): trend towards suppression
- relative mRNA expression of Ugp (Ugp): did not result in a change
- fibrotic scar tissue formation (cardiac fibrosis in mice): significant reduction
